Drawing on patent publication US10023519B2, “Cyclobutane containing carboxylic acid GPR120 modulators” (BRISTOL-MYERS SQUIBB COMPANY, priority 2014, dated 2018), this text covers EC50 for 30 compounds.

Usually EC50 stands for the concentration giving half of the maximal effect.

Chain of human GPR120 (Q5NUL3 whole entry): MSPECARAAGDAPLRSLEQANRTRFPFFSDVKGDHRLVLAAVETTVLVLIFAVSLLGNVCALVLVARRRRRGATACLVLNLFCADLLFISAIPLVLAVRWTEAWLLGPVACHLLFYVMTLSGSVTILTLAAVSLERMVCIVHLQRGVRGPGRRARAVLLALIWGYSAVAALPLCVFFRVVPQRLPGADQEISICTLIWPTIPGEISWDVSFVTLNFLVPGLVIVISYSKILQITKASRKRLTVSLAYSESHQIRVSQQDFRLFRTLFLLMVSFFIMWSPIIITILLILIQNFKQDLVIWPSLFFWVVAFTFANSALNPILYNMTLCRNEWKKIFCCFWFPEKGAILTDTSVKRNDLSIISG

The experiment concerns the target human GPR120 (Homo sapiens (Human), UniProt Q5NUL3). Briefly: GPR120 pERK AlphaScreen SureFire Assay (human). In kind it is cell-based. To be noted: CHO cells stably transfected with short form of human GPR120.
From the text: GPR120 activity was monitored by measuring phosphorylation of ERK (pERK), since G protein receptors are known to activate the ERK signaling cascade either directly and/or through recruitment of arrestin that serves as a scaffold for downstream signaling events.
GPR120 pERK AlphaScreen SureFire Assay
The human and mouse GPR120-mediated intracellular phosphorylated ERK assays were established using CHOA12 cells stably transfected with the short form of human or mouse GPR120 receptor. […] Cells were cryo preserved at a concentration of 2×10^7 cells/mL, in 90% Charcoal/Dextran FBS and 10% DMSO, and frozen in liquid nitrogen at a low passage number.
The flasks were placed in a tissue culture incubator overnight (37° C., 5% CO2). […] The next day, cells were serum starved in 30 μL of F-12 media without any serum or antibiotics for 2 hours at 37° C.
Cells were then stimulated with 50 nL of compound dilutions using ECHO liquid handler for 7 minutes at 37° C.
(§1) The lysis buffer was diluted 5-fold with water before use. […] The SureFire assay reagent mix was prepared by mixing 60 parts Reaction Buffer, 10 parts Activation Buffer, 1 part Donor Beads, 1 part Acceptor Beads (Perkin Elmer Cat. #TGRES10K). 3.5 μL/well of this reagent mix was manually added to the proxiplate with a multichannel pipettor. Plates were spun down at 1000 rpm for 2 minutes, followed by light-protected incubation at room temperature for 2 hours. The plates were read on the Alpha-technology compatible Envision multilabel plate reader using AlphaScreen protocol according to manufacturer's specifications. The agonist effect of compounds was expressed as 100× (average sample−average blank)/(average total−average blank) where sample is the luminescence activity in the presence of test compound, blank is equal to the luminescence activity in the presence of DMSO control and the total is signal induced by 50 μM linolenic acid as reference compound. Activation data for the test compound over a range of concentrations was plotted as percentage activation of the test compound (100%=maximum response). After correcting for background, EC50 values were determined.
The human and mouse GPR120-mediated intracellular phosphorylated ERK assays were also established using CHO-K1 cells stably transfected with the short form of human or mouse GPR120 receptor. […] Cells were cryo preserved at a concentration of 3×10^6 cells/mL, in 70% F-12, 20% Charcoal/Dextran FBS and 10% DMSO, and frozen in liquid nitrogen at a low passage number.
The flasks were placed in a tissue culture incubator overnight (37° C., 5% CO2).
Cells were then stimulated with 40 nL of compound dilutions using ECHO liquid handler for 7 minutes at 37° C.
as §1, with “compound.” for “compound. Activation data for the test compound over a range of concentrations was plotted as percentage activation of the test compound (100%=maximum response). After correcting for background, EC50 values were determined.”
Activation data for the test compound over a range of concentrations was plotted as percentage activation of the test compound (100%=maximum response). After correcting for background, EC50 values were determined.
In general terms: Bead proximity is the source of the signal in Alpha formats.
As for `O=C(O)CO[C@H]1C[C@@H](c2ccc(-c3cc(Oc4ccccn4)ccc3F)cc2)C1` [Example 26, Cis-2-(3-(2′-fluoro-5′-(pyridin-2-yloxy)-[1,1′-biphenyl]-4-yl)cyclobutoxy) acetic acid], the 50% effective concentration (EC50) came to 0.49 µM. In the case of `Cc1ncc(Oc2ccc(F)c(-c3ccc([C@H]4C[C@@H](OCC(=O)O)C4)cc3)c2)s1` [Example 27, Cis-2-(3-(2′-fluoro-5′-((2-methylthiazol-5-yl)oxy)-[1,1′-biphenyl]-4-yl)cyclobutoxy)acetic acid] it was 0.42 µM; in that of `O=C(O)CO[C@H]1C[C@@H](c2ccc(-c3cc(Oc4cccnc4)ccc3F)cc2)C1` [Example 28, Cis-2-(3-(2′-fluoro-5′-(pyridin-3-yloxy)-[1,1′-biphenyl]-4-yl)cyclobutoxy) acetic acid], 0.66 µM; in that of `Cc1ccc(Oc2ccc(F)c(-c3ccc([C@H]4C[C@@H](OCC(=O)O)C4)cc3)c2)nn1` [Example 29, Cis-2-(3-(2′-fluoro-5′-((6-methylpyridazin-3-yl)oxy)-[1,1′-biphenyl]-4-yl)cyclobutoxy)acetic acid], 5 µM. Turning to `O=C(O)CO[C@H]1C[C@@H](c2ccc(-c3cc(OC4CCCOC4)ccc3F)cc2)C1` (stereo partly drawn) [Example 30, Cis2-(3-(2′-fluoro-5′-((tetrahydro-2H-pyran-3-yl)oxy)-[1,1′-biphenyl]-4-yl)cyclobutoxy)acetic acid], the concentration giving a half-maximal response (EC50) came out at 1.4 µM.

Turning to `Cc1ccc(Oc2ccc(F)c(-c3ccc([C@H]4C[C@@H](OCC(=O)O)C4)cc3)c2)cc1` [Example 31, Cis-2-(3-(2′-fluoro-5′-(p-tolyloxy)-[1,1′-biphenyl]-4-yl)cyclobutoxy)acetic acid], it took 0.71 µM to reach a half-maximal effect (EC50). `O=C(O)CO[C@H]1C[C@@H](c2ccc(-c3cc(Oc4cccc(F)c4)ccc3F)cc2)C1` [Example 32, Cis-2-(3-(2′-fluoro-5′-(3-fluorophenoxy)-[1,1′-biphenyl]-4-yl)cyclobutoxy)acetic acid] yielded a concentration giving a half-maximal response (EC50) of 0.23 µM.

Turning to `O=C(O)CO[C@H]1C[C@@H](c2ccc(-c3cc(OC4CCCCC4)ccc3F)cc2)C1` [Example 33, Cis-2-(3-(5′-(cyclohexyloxy)-2′-fluoro-[1,1′-biphenyl]-4-yl)cyclobutoxy)acetic acid], the EC50 was found to be 0.76 µM. In the case of `O=C(O)CO[C@H]1C[C@@H](c2ccc(-c3cc(Oc4ccc(F)cc4)cc(F)c3F)cc2)C1` [Example 34, Cis-2-(3-(2′,3′-difluoro-5′-(4-fluorophenoxy)-[1,1′-biphenyl]-4-yl)cyclobutoxy)acetic acid] it was 0.24 µM. In the case of `Cc1ccc(Oc2cc(F)c(F)c(-c3ccc([C@H]4C[C@@H](OCC(=O)O)C4)cc3)c2)cc1F` [Example 35, Cis-2-(3-(2′,3′-difluoro-5′-(3-fluoro-4-methylphenoxy)-[1,1′-biphenyl]-4-yl)cyclobutoxy)acetic acid] it was 0.29 µM; in that of `O=C(O)CO[C@H]1C[C@@H](c2ccc(-c3cc(Oc4cccc(F)c4)cc(F)c3F)cc2)C1` [Example 36, Cis-2-(3-(2′,3′-difluoro-5′-(3-fluorophenoxy)-[1,1′-biphenyl]-4-yl)cyclobutoxy) acetic acid], 0.13 µM.

Turning to `Cc1ccc(Oc2cc(F)c(F)c(-c3ccc([C@H]4C[C@@H](OCC(=O)O)C4)cc3)c2)cc1` [Example 38, Cis-2-(3-(2′,3′-difluoro-5′-(p-tolyloxy)-[1,1′-biphenyl]-4-yl)cyclobutoxy)acetic acid], the 50% effective concentration (EC50) came to 0.54 µM. Compared with the last compound, the EC50 is about 4.2-fold higher. In the case of `O=C(O)CO[C@H]1C[C@H](c2ccc(-c3cc(Oc4ccccc4)ccc3F)cc2)C1` [Example 39, Trans-2-(3-(2′-fluoro-5′-phenoxy-[1,1′-biphenyl]-4-yl)cyclobutoxy)acetic acid] it was 0.41 µM. In the case of `CC(C)Oc1ccc(F)c(-c2ccc(C3CC(CC(=O)O)C3)cc2)c1` (stereo not drawn) [Example 43, 2-(3-(2′-Fluoro-5′-isopropoxy-[1,1′-biphenyl]-4-yl)cyclobutyl)acetic acid] it was 0.21 µM. `CC(C)Oc1ccc(F)c(-c2ccc([C@H]3C[C@H](CC(=O)O)C3)cc2)c1` [Example 44, 2-(Trans-3-(2′-fluoro-5′-isopropoxy-[1,1′-biphenyl]-4-yl)cyclobutyl)acetic acid] displayed an EC50 of 0.14 µM. Then `CC(C)Oc1ccc(F)c(-c2ccc([C@H]3C[C@@H](CC(=O)O)C3)cc2)c1` [Example 45, 2-(Cis-3-(2′-fluoro-5′-isopropoxy-[1,1′-biphenyl]-4-yl)cyclobutyl)acetic acid], with 0.12 µM; and `CC(C)Oc1ccc(F)c(-c2ccc([C@H]3C[C@@H](CCC(=O)O)C3)cc2)c1` [Example 46, Cis-3-(3-(2′-fluoro-5′-isopropoxy-[1,1′-biphenyl]-4-yl)cyclobutyl)propanoic acid], with 0.65 µM. Then `CC(C)Oc1ccc(F)c(-c2ccc(C=C3CC(C(=O)O)C3)cc2)c1` (stereo not drawn) [Example 47, 3-((2′-Fluoro-5′-isopropoxy-[1,1′-biphenyl]-4-yl)methylene)cyclobutanecarboxylic acid], with 0.46 µM. In the case of `CC(C)Oc1ccc(F)c(-c2ccc(CC3CC(CC(=O)O)C3)cc2)c1` (stereo not drawn) [Example 50, 2-(3-((2′-Fluoro-5′-isopropoxy-[1,1′-biphenyl]-4-yl)methyl)cyclobutyl)acetic acid] it was 0.65 µM; in that of `CC(C)Oc1ccc(F)c(-c2ccc(C[C@H]3C[C@@H](CC(=O)O)C3)cc2)c1` [Example 51, 2-(Cis-3-((2′-fluoro-5′-isopropoxy-[1,1′-biphenyl]-4-yl)methyl)cyclobutyl)acetic acid], 0.56 µM; in that of `CC(C)Oc1ccc(F)c(-c2ccc(C[C@H]3C[C@H](CC(=O)O)C3)cc2)c1` [Example 52, 2-(Trans-3-((2′-fluoro-5′-isopropoxy-[1,1′-biphenyl]-4-yl)methyl)cyclobutyl)acetic acid], 0.94 µM. Compound `O=C(O)CCC[C@H]1C[C@@H](OCc2cccc(Oc3ccccc3)c2)C1` [Example 53, 4-(Cis-3-(3-phenoxybenzyloxy)cyclobutyl)butanoic acid] registered an EC50 of 0.43 µM. In the case of `O=C(O)COCC1CC(OCc2cccc(Oc3ccccc3)c2)C1` (stereo not drawn) [Example 54, 2-((3-(3-Phenoxybenzyloxy)cyclobutyl)methoxy)acetic acid] it was 3.85 µM. In the case of `O=C(O)CCOC[C@H]1C[C@@H](OCc2cccc(Oc3ccccc3)c2)C1` [Example 55, 3-((Cis-3-(3-phenoxybenzyloxy)cyclobutyl)methoxy)propanoic acid] it was 0.47 µM; in that of `O=C(O)COCCC[C@H]1C[C@H](c2cccc(Oc3ccccc3)c2)C1` [Example 56, 2-(3-(Trans-3-(3-phenoxyphenyl)cyclobutyl)propoxy)acetic acid], 0.17 µM; in that of `O=C(O)COCCC1CC(OCc2cccc(Oc3ccccc3)c2)C1` (stereo not drawn) [Example 57, 2-(2-(3-(3-Phenoxybenzyloxy)cyclobutyl)ethoxy)acetic acid], 0.7 µM. Then `O=C(O)COCCC[C@H]1C[C@@H](c2cccc(Oc3ccccc3)c2)C1` [Example 58, 2-(3-(Cis-3-(3-phenoxyphenyl)cyclobutyl)propoxy)acetic acid], with 0.42 µM; and `O=C(O)COCCC[C@H]1C[C@@H](OCc2cccc(Oc3ccccc3)c2)C1` [Example 59, 2-(3-(Cis-3-(3-phenoxybenzyloxy)cyclobutyl)propoxy)acetic acid], with 0.52 µM. In turn, `C[C@]1(CCCOCC(=O)O)C[C@@H](c2cccc(Oc3ccccc3)c2)C1` [Example 60, 2-(3-(Cis-1-methyl-3-(3-phenoxyphenyl)cyclobutyl)propoxy)acetic acid] registered an EC50 of 0.74 µM. Then `C[C@]1(CCCOCC(=O)O)C[C@H](c2cccc(Oc3ccccc3)c2)C1` [Example 61, 2-(3-(Trans-1-methyl-3-(3-phenoxyphenyl)cyclobutyl)propoxy)acetic acid], with 0.15 µM.
